Measurements as given in US12503444B2, “Compound containing benzene ring and application thereof” (WUHAN LL SCIENCE AND TECHNOLOGY DEVELOPMENT CO., LTD., priority 2019, dated 2025).

The compounds below were run against T1, hP2X4 (human purinergic P2X receptor subtype 4) (Homo sapiens, UniProt Q99571) (assay: FLIPR assay of intracellular calcium increase induced by activation of hP2X4 expressed in HEK293 cells (agonist BZ-ATP 2.5 μM)). Settings: HEK293 cells stably expressing hP2X4, FLIPR, class symbols, read-out: P2X4 IC50.
T1 sequence (Q99571 1-404 isoform Q99571-2): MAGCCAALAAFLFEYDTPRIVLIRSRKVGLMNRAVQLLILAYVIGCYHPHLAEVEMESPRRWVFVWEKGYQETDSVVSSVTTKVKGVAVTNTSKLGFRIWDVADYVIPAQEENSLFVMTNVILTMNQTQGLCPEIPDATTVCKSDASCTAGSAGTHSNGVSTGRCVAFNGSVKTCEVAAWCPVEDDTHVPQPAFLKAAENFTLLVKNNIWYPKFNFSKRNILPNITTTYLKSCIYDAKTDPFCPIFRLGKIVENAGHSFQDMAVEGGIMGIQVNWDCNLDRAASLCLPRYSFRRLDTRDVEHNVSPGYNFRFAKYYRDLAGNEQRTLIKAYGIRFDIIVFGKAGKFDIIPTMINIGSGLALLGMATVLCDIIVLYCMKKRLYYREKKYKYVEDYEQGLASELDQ
Assay type: cell-based
Procedure: The antagonist property of the compounds disclosed herein was determined using the FLIPR (fluorescence imaging plate reader) method, wherein the compounds are inhibitors for the intracellular calcium increase induced by activation of hP2X4 (human purinergic P2X receptor subtype 4, accession No. NM_001256796.2) expressed in HEK293 cells (human renal epithelial cell line, ATCC).
HEK293 cells stably expressing hP2X4 were cultured in DMEM high glucose medium containing 10% FBS (fetal bovine serum, Biosera, FB-1058/500), 1% penicillin-streptomycin (Gibco, 15140-122) and 1 mg/mL G418 (CABIOCHE, 345810) in a cell incubator (37° C., […]). Cells at 400,000 cells/mL were seeded into a 384-well plate (10,000 cells/well) 18-24 h prior to the FLIPR experiment and then incubated overnight in a cell incubator. On the day of the experiment, the medium was discarded and the cells were washed in an FLIPR buffer (0.3 mL of probenecid (Thermo, P36400), 0.6 mL of 1 M HEPES (Invitrogen, 15630080) and 29.1 mL of HBSS (Invitrogen, 14065056) per 30 mL of the buffer). Each well was added with 20 μL of 0.5× Calcium 6 fluorescent dye (Molecular Devices, R8190) and then the cells were subjected to dye-loading incubation at 37° C. for 1.5 h. Each well was added with 10 μL of respective test compound (dissolved in DMSO at a concentration of 10 mM and serially diluted with buffer) or vehicle and the mixture was equilibrated for 30 min at room temperature. The cell plate was then placed in the FLIPR for baseline fluorescence measurements (excitation at 485 nm and emission at 525-535 nm). An agonist (BZ-ATP (Sigma, B6396) at a final concentration of 2.5 μM) or a vehicle (ultrapure water) was then added at 10 μL/well, fluorescence values were measured for 2 min at 1-second intervals, and finally the output fluorescence counts were analyzed.
“2-(2-chlorophenyl)-N-(1-(2-hydroxyethyl)-4-sulfamoyl-2H-indazol-6-yl)acetamide [Compound 27-B]” showed an IC50 of 50 to 200 nM.
CCn1cc2c(S(N)(=O)=O)cc(NC(=O)Cc3ccccc3Cl)cc2n1 [Compound 4-A, (4-sulfonamide-6-N-(2-chlorophenylacetyl)-2-ethyl)-indazole] showed an IC50 of at most 10 nM.
Work on CC(C)n1ncc2c(S(N)(=O)=O)cc(NC(=O)Cc3ccccc3Cl)cc21 [Compound 6-B, 2-(2-chlorophenyl)-N-(1-isopropyl-4-sulfamoyl-1H-indazol-6-yl)acetamide] yielded an IC50 of 10 to 50 nM.
Compound CC(C)(C)n1cc2c(S(N)(=O)=O)cc(NC(=O)Cc3ccccc3Cl)cc2n1 [Compound 9, 2-(2-chlorophenyl)-N-(2-(tert-butyl)-4-sulfamoyl-2H-indazol-6-yl)acetamide] has an IC50 of at most 10 nM.
NS(=O)(=O)c1cc(NC(=O)Cc2ccccc2Cl)cc2nn(CCF)cc12 [Compound 11, 2-(2-chlorophenyl)-N-(2-(2-fluoroethyl)-4-sulfamoyl-2H-indazol-6-yl)acetamide] showed an IC50 of at most 10 nM.
For CC(C)(F)n1cc2c(S(N)(=O)=O)cc(NC(=O)Cc3ccccc3Cl)cc2n1 [Compound 13, 2-(2-chlorophenyl)-N-(2-(2-fluoropropan-2-yl)-4-sulfamoyl-2H-indazol-6-yl)acetamide], the IC50 was 10 to 50 nM.
In the case of C=CCn1cc2c(S(N)(=O)=O)cc(NC(=O)Cc3ccccc3Cl)cc2n1 [Compound 14-A], the IC50 is reported as at most 10 nM.
NS(=O)(=O)c1cc(NC(=O)Cc2ccccc2Cl)cc2c1cnn2CC1CC1 [Compound 15-B, 2-(2-chlorophenyl)-N-(1-(cyclopropylmethyl)-4-sulfamoyl-1H-indazol-6-yl)acetamide] showed an IC50 of 10 to 50 nM.
Work on NS(=O)(=O)c1cc(NC(=O)Cc2ccccc2Cl)cc2c1cnn2C(=O)C1CC1 [Compound 16-A, 2-(2-chlorophenyl)-N-(1-(cyclopropylcarbonyl)-4-sulfamoyl-1H-indazol-6-yl)acetamide] yielded an IC50 of 10 to 50 nM.
NS(=O)(=O)c1cc(NC(=O)Cc2ccccc2Cl)cc2nn(C(=O)C3CC3)cc12 [Compound 16-B, 2-(2-chlorophenyl)-N-(2-(cyclopropylcarbonyl)-4-sulfamoyl-2H-indazol-6-yl)acetamide] showed an IC50 of at most 10 nM.
Compound CC(C)C1(n2cc3c(S(N)(=O)=O)cc(NC(=O)Cc4ccccc4Cl)cc3n2)CC1 [Compound 17, 2-(2-chlorophenyl)-N-(2-(1-isopropylcyclopropyl)-4-sulfamoyl-2H-indazol-6-yl)acetamide] has an IC50 of 10 to 50 nM.
CCC1(n2cc3c(S(N)(=O)=O)cc(NC(=O)Cc4ccccc4Cl)cc3n2)CC1 [Compound 18, 2-(2-chlorophenyl)-N-(2-(1-ethylcyclopropyl)-4-sulfamoyl-2H-indazol-6-yl)acetamide] showed an IC50 of 10 to 50 nM.
NS(=O)(=O)c1cc(NC(=O)Cc2ccccc2Cl)cc2nn(C(F)C3CC3)cc12 (stereo not shown) [Compound 19, 2-(2-chlorophenyl)-N-(2-(cyclopropylfluoromethyl)-4-sulfamoyl-2H-indazol-6-yl)acetamide] gave an IC50 of 10 to 50 nM.
Work on NS(=O)(=O)c1cc(NC(=O)Cc2ccccc2Cl)cc2nn(C(F)(F)C3CC3)cc12 [Compound 20, 2-(2-chlorophenyl)-N-(2-(cyclopropyldifluoromethyl)-4-sulfamoyl-2H-indazol-6-yl)acetamide] yielded an IC50 of 10 to 50 nM.
For CC(C)(C1CC1)n1cc2c(S(N)(=O)=O)cc(NC(=O)Cc3ccccc3Cl)cc2n1 [Compound 21, 2-(2-chlorophenyl)-N-(2-(2-cyclopropylpropan-2-yl)-4-sulfamoyl-2H-indazol-6-yl)acetamide], the IC50 was 10 to 50 nM.
CC1(n2cc3c(S(N)(=O)=O)cc(NC(=O)Cc4ccccc4Cl)cc3n2)CC1 [Compound 22, 2-(2-chlorophenyl)-N-(2-(1-methylcyclopropyl)-4-sulfamoyl-2H-indazol-6-yl)acetamide] gave an IC50 of 10 to 50 nM.
Work on CC(C)C(F)(F)n1cc2c(S(N)(=O)=O)cc(NC(=O)Cc3ccccc3Cl)cc2n1 [Compound 23, 2-(2-chlorophenyl)-N-(2-(1,1-difluoro-2-methylpropyl)-4-sulfamoyl-2H-indazol-6-yl)acetamide] yielded an IC50 of 10 to 50 nM.
COCCn1cc2c(S(N)(=O)=O)cc(NC(=O)Cc3ccccc3Cl)cc2n1 [Compound 25, 2-(2-chlorophenyl)-N-(2-(2-methoxyethyl)-4-sulfamoyl-2H-indazol-6-yl)acetamide] gave an IC50 of 10 to 50 nM.
For COCCn1ncc2c(S(N)(=O)=O)cc(NC(=O)Cc3ccccc3Cl)cc21 [Compound 25A], the IC50 was 10 to 50 nM.
With CC(C)OCCn1ncc2c(S(N)(=O)=O)cc(NC(=O)Cc3ccccc3Cl)cc21 [Compound 26-B, 2-(2-chlorophenyl)-N-(1-(2-isopropoxyethyl)-4-sulfamoyl-1H-indazol-6-yl)acetamide] the IC50 was 200 to 5000 nM.
In the case of NS(=O)(=O)c1cc(NC(=O)Cc2ccccc2Cl)cc2nn(CCO)cc12 [Compound 27-A, 2-(2-chlorophenyl)-N-(2-(2-hydroxyethyl)-4-sulfamoyl-2H-indazol-6-yl)acetamide], the IC50 is reported as 200 to 5000 nM.
With NS(=O)(=O)c1cc(NC(=O)Cc2ccccc2Cl)cc2nn(CCOC3CC3)cc12 [Compound 28, 2-(2-chlorophenyl)-N-(2-(2-cyclopropyloxyethyl)-4-sulfamoyl-2H-indazol-6-yl)acetamide] the IC50 was 10 to 50 nM.
For CC(C)NCCn1cc2c(S(N)(=O)=O)cc(NC(=O)Cc3ccccc3Cl)cc2n1 [Compound 29, 2-(2-chlorophenyl)-N-(2-(2-(isopropylamino)ethyl)-4-sulfamoyl-2H-indazol-6-yl)acetamide], the IC50 was 10 to 50 nM.
CS(=O)(=O)CCn1cc2c(S(N)(=O)=O)cc(NC(=O)Cc3ccccc3Cl)cc2n1 [Compound 30, 2-(2-chlorophenyl)-N-(2-(2-(methylsulfonyl)ethyl)-4-sulfamoyl-2H-indazol-6-yl)acetamide] was tested, and the IC50 was 10 to 50 nM.
NS(=O)(=O)c1cc(NC(=O)Cc2ccccc2Cl)cc2c1cnn2CC1CCCC1 [Compound 31-B, 2-(2-chlorophenyl)-N-(1-(cyclopentylmethyl)-4-sulfamoyl-1H-indazol-6-yl)acetamide] gave an IC50 of at most 10 nM.
For NS(=O)(=O)c1cc(NC(=O)Cc2ccccc2Cl)cc2nn(CC3CCCCC3)cc12 [Compound 32-A, 2-(2-chlorophenyl)-N-(2-(cyclohexylmethyl)-4-sulfamoyl-2H-indazol-6-yl)acetamide], the IC50 was at most 10 nM.
Work on NS(=O)(=O)c1cc(NC(=O)Cc2ccccc2Cl)cc2c1cnn2CC1CCCCC1 [Compound 32-B, 2-(2-chlorophenyl)-N-(1-(cyclohexylmethyl)-4-sulfamoyl-1H-indazol-6-yl)acetamide] yielded an IC50 of 10 to 50 nM.
NS(=O)(=O)c1cc(NC(=O)Cc2ccccc2Cl)cc2nn(CCC3CC3)cc12 [Compound 33, 2-(2-chlorophenyl)-N-(2-(2-cyclopropylethyl)-4-sulfamoyl-2H-indazol-6-yl)acetamide] showed an IC50 of at most 10 nM.
NS(=O)(=O)c1cc(NC(=O)Cc2ccccc2Cl)cc2nn(Cc3ccc(O)cc3)cc12 [Compound 34, 2-(2-chlorophenyl)-N-(2-(4-hydroxybenzyl)-4-sulfamoyl-2H-indazol-6-yl)acetamide] showed an IC50 of 10 to 50 nM.
COc1ccccc1Cn1ncc2c(S(N)(=O)=O)cc(NC(=O)Cc3ccccc3Cl)cc21 [Compound 37-B, 2-(2-chlorophenyl)-N-(1-(2-methoxybenzyl)-4-sulfamoyl-1H-indazol-6-yl)acetamide] showed an IC50 of 10 to 50 nM.
In the case of CN(C)c1cccc(Cn2cc3c(S(N)(=O)=O)cc(NC(=O)Cc4ccccc4Cl)cc3n2)c1 [Compound 38, 2-(2-chlorophenyl)-N-(2-(3-(dimethylamino)benzyl)-4-sulfamoyl-2H-indazol-6-yl)acetamide], the IC50 is reported as 10 to 50 nM.
In the case of COc1cnccc1Cn1cc2c(S(N)(=O)=O)cc(NC(=O)Cc3ccccc3Cl)cc2n1 [Compound 39, 2-(2-chlorophenyl)-N-(2-((3-methoxypyridin-4-yl)methyl)-4-sulfamoyl-2H-indazol-6-yl)acetamide], the IC50 is reported as 10 to 50 nM.

Same assay, conditions: HEK293 cells stably expressing hP2X4, FLIPR, numeric values, read-out: P2X4 IC50
For CC(C)n1cc2c(S(N)(=O)=O)cc(NC(=O)Cc3ccccc3Cl)cc2n1 [Compound 6-A, 2-(2-chlorophenyl)-N-(2-isopropyl-4-sulfamoyl-2H-indazol-6-yl)acetamide], the IC50 was 1.16 nM.
Work on NS(=O)(=O)c1cc(NC(=O)Cc2ccccc2Cl)cc2nn(CC3CC3)cc12 [Compound 15-A, 2-(2-chlorophenyl)-N-(2-(cyclopropylmethyl)-4-sulfonamido-2H-indazol-6-yl)acetamide] yielded an IC50 of 119 nM.
